The numbers were not newly measured in US20100008866A1, “CIS-CYCLOHEXYL SUBSTITUTED PYRIMIDINONE DERIVATIVES” (Neurogen Corporation, priority 2006, published 2010), which cites them from elsewhere.

pKi: −log10 of the molar value.

In general, pKi refers to the Ki on a negative log10 scale, so that one unit is a factor of ten.

For the data set, the target named is VR (Homo sapiens, UniProt Q8NER1). To be noted: typically; no more than moderate affinity; read-out: Ki value (binds to VR).
Sequence of VR (Q8NER1 whole entry): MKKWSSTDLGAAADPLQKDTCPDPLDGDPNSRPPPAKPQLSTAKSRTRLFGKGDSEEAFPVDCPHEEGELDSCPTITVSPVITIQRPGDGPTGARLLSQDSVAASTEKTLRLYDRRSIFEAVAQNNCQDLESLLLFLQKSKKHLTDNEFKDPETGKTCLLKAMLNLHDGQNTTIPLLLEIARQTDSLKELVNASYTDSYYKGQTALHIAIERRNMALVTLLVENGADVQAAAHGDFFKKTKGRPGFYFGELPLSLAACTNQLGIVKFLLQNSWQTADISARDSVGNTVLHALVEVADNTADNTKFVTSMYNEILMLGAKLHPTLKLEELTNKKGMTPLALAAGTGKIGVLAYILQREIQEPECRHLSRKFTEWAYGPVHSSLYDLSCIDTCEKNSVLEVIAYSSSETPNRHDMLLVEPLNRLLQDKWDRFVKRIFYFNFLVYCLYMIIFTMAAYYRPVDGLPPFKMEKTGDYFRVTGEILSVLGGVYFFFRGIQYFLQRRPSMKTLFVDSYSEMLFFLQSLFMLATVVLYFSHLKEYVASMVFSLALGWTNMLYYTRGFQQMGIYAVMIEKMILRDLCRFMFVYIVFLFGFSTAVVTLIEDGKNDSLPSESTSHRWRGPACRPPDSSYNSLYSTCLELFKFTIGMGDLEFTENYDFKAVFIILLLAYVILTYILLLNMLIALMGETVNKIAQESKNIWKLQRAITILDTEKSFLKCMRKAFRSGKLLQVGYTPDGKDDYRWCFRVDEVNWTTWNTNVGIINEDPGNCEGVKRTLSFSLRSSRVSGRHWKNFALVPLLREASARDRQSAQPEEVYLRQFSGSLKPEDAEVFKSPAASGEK

`Cl.Cl.Cl.Cl.Cl.Cl.N.N.N.N.N.N.N.N.N.N.N.N.N.N.[O-2].[O-2].[Ru+3].[Ru+3].[Ru+4]` [ruthenium red]: the pKi was no more than 3.85.
